PubChem BioAssay AID256 (DTP/NCI, 2004)
“And” between values parts separate entries of the source, which are not always exact repeats. Equal entries are not always repeated. Toxic doses and inconclusive results are not listed. The calls were made as follows: active = survival T/C of 150% or more; inactive = T/C below 125% in these data.

Test system: CD2F1 mice, L1210 leukemia ip, survival T/C
Experiment: NCI In Vivo Anticancer Drug Screen. Data for tumor model L1210 Leukemia (intraperitoneal) in CD2F1 (CDF1) mice
Conditions: endpoint: mean survival time, higher = longer survival
Method in brief: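 In this screen, transplantable tumors were grown in mice given either the compound or its vehicle. Results were expressed as the treated measurement relative to the control measurement.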

[1] = dose: 50.0 mg/kg/injection, schedule: Q01DX009 (ip), vehicle: saline with Tween-80
[2] = dose: 100.0 mg/kg/injection, schedule: Q01DX009 (ip), vehicle: saline with Tween-80
[3] = dose: 200.0 mg/kg/injection, schedule: Q01DX009 (ip), vehicle: saline with Tween-80
[4] = dose: 100.0 mg/kg/injection, schedule: Q04DX003 (ip), vehicle: saline with Tween-80
[5] = dose: 200.0 mg/kg/injection, schedule: Q04DX003 (ip), vehicle: saline with Tween-80
[6] = dose: 400.0 mg/kg/injection, schedule: Q01DX009 (ip), vehicle: saline with Tween-80
[7] = dose: 400.0 mg/kg/injection, schedule: Q04DX003 (ip), vehicle: saline with Tween-80
[8] = dose: 100.0 mg/kg/injection, schedule: Q04DX003 (ip), vehicle: saline
[9] = dose: 200.0 mg/kg/injection, schedule: Q04DX003 (ip), vehicle: saline
[10] = dose: 400.0 mg/kg/injection, schedule: Q04DX003 (ip), vehicle: saline
[11] = dose: 100.0 mg/kg/injection, schedule: Q04DX002 (ip), vehicle: saline with Tween-80
[12] = dose: 200.0 mg/kg/injection, schedule: Q04DX002 (ip), vehicle: saline with Tween-80
[13] = dose: 400.0 mg/kg/injection, schedule: Q04DX002 (ip), vehicle: saline with Tween-80

Measured: T/C

CCCNc1ccc(S(=O)(=O)c2ccc(N)cc2)cc1
inactive: dose: 25.0 mg/kg/injection, schedule: Q01DX009 (ip), vehicle: saline with Tween-80 95 % of control | [1] 95 % of control | [2] 89 % of control

Cc1ccc(NC(=S)NCCO)cc1C
inactive: [2] 114 % of control

CC/C=C(CC)\C(=C\CC)CC
inactive: [1] 100 % of control | [2] 100 % of control | [3] 107 % of control

O=C(O)C1C2OC3C(OC(=O)C31)C2Br (stereo not drawn)
inactive: [2] 96 % of control | [4] 91 % of control | [3] 93 % of control | [5] 89 % of control | [6] 91 % of control | [7] 89 % of control

CN(C)N=Nc1ccc(C(=O)N/N=C/c2ccc([N+](=O)[O-])cc2)cc1
inactive: [8] 97 % of control | [9] 93 % of control | [10] 93 % of control

O=C(CCCCCCCCC(=O)OO)OO (tested in a mixture with another compound)
inactive: [2] 96 % of control

CC1(C)CC(=O)C2(C)CCC(=O)C=C2C1 (stereo not drawn)
inactive: [4] 101 % of control | [5] 100 % of control | [7] 100 % of control

CC(=O)NC(CO)C1C(CO)OC(n2ccc(=O)[nH]c2=O)C1O (stereo not drawn)
inactive: dose: 6.25 mg/kg/injection, schedule: Q01DX005 (ip), vehicle: water 101 % of control | dose: 12.5 mg/kg/injection, schedule: Q01DX005 (ip), vehicle: water 101 % of control | dose: 25.0 mg/kg/injection, schedule: Q01DX005 (ip), vehicle: water 98 % of control | dose: 50.0 mg/kg/injection, schedule: Q01DX005 (ip), vehicle: water 103 % of control | dose: 100.0 mg/kg/injection, schedule: Q01DX005 (ip), vehicle: water 96 % of control

CC1CC(C)(C)NC(CCC2NC(C)(C)CC(C)O2)O1 (stereo not drawn)
inactive: [2] 92 % of control

OC(Cc1ccnc2ccccc12)C(Cl)(Cl)Cl (stereo not drawn)
inactive: [8] 103 % of control | [9] 103 % of control | [10] 97 % of control

O=C(NCCNC(=O)Nc1ccc(Cl)cc1)Nc1ccc(Cl)cc1
inactive: [2] 105 % of control | [4] 88 % of control | [3] 107 % of control | [5] 90 % of control | [6] 96 % of control | [7] 88 % of control

CN(C)NCc1ccccc1
inactive: dose: 25.0 mg/kg/injection, schedule: Q01DX009 (ip), vehicle: saline 102 % of control | dose: 50.0 mg/kg/injection, schedule: Q01DX009 (ip), vehicle: saline 102 % of control | dose: 100.0 mg/kg/injection, schedule: Q01DX009 (ip), vehicle: saline 94 % of control and 107 % of control

NC(=O)C(c1cccs1)c1cccs1
inactive: [11] 93 % of control | [12] 87 % of control | [13] 90 % of control

Cc1ccc(NC(=O)/C=C/C(=O)O)cc1C
inactive: [1] 95 % of control | [2] 101 % of control | [3] 105 % of control

O=C1OC(C(Cl)(Cl)Cl)OC1C(Cl)(Cl)Cl (stereo not drawn)
inactive: dose: 100.0 mg/kg/injection, schedule: Q01DX001 (ip), vehicle: saline with Tween-80 97 % of control

N#[N+]c1c(O)ccc2ccccc12
inactive: [11] 107 % of control | [12] 103 % of control | [13] 100 % of control
